{"source": "patent US9353051B2", "about": "“Antiviral drugs for treatment or prevention of dengue infection” (Siga Technologies Inc., priority 2007, dated 2016)", "test_system": "Dengue-2 (Strain New Guinea C)", "assay": "viral yield assay against Dengue-2 in Vero cells", "assay_type": "cell-based", "settings": "Dengue virus; Vero cells, MOI 0.1, harvested 48 hours post infection; read-out: Activity (anti-dengue 2 viral activity, EC50)", "description": "Compounds that were active in the primary screen were also tested for activity in viral yield assays. […] Vero cells in 12-well plates were infected with dengue-2 virus at a multiplicity of infection (MOI) of 0.1, treated with compound (or DMSO as a control), incubated at 37° C., harvested 48 hours post infection and titered on Vero cells as described above. The EC50 was calculated through ExcelFit. Those compounds with activity below 1 μM are indicated with “A”, those with activity between 1 and 10 μM are indicated with “B”, those with activity between 10 and 25 μM with “C”, and those with activity above 25 μM are indicated with “D”."}
{"smiles": "CC(NS(=O)(=O)c1ccc(NC(=O)Cn2cnc3ccccc3c2=O)cc1)C1CC2CCC1C2", "note": "(centres unmarked) [Compound 43, N-[4-(1-Bicyclo[2.2.1]hept-2-yl-ethylsulfamoyl)-phenyl]-2-(4-oxo-4H-quinazolin-3-yl)-acetamide]", "values": [{"measurement": "EC50", "value": "> 25", "unit": "µM"}]}
{"smiles": "CC(C)NS(=O)(=O)c1ccc(NC(=O)Cn2cnc3ccccc3c2=O)cc1", "note": "[Compound 44, N-(4-Isopropyl-sulfamoyl-phenyl)-2-(4-oxo-4H-quinazolin-3-yl)-acetamide]", "values": [{"measurement": "EC50", "value": "> 25", "unit": "µM"}]}
{"smiles": "CN1CCN(S(=O)(=O)c2ccc(NC(=O)Cn3cnc4ccccc4c3=O)cc2)CC1", "note": "[Compound 45, N-[4-(4-Methyl-piperazine-1-sulfonyl)-phenyl]-2-(4-oxo-4H-quinazolin-3-yl)-acetamide]", "values": [{"measurement": "EC50", "value": "> 25", "unit": "µM"}]}
{"smiles": "CNS(=O)(=O)c1ccc(NC(=O)Cn2cnc3ccccc3c2=O)cc1", "note": "[Compound 46, N-(4-Methylsulfamoyl-phenyl)-2-(4-oxo-4H-quinazolin-3-yl)-acetamide]", "values": [{"measurement": "EC50", "value": "> 25", "unit": "µM"}]}
{"smiles": "CC1CCN(S(=O)(=O)c2ccc(NC(=O)Cn3cnc4ccccc4c3=O)cc2)CC1", "note": "[Compound 47, N-[4-(4-Methyl-piperidine-1-sulfonyl)-phenyl]-2-(4-oxo-4H-quinazolin-3-yl)-acetamide]", "values": [{"measurement": "EC50", "value": "> 25", "unit": "µM"}]}
{"smiles": "O=C(Cn1cnc2ccccc2c1=O)Nc1ccc(S(=O)(=O)NC2CCS(=O)(=O)C2)cc1", "note": "(centres unmarked) [Compound 48, N-[4-(1,1-Dioxo-tetrahydro-1lambda*6*- thiophen-3-ylsulfamoyl)-phenyl]-2-(4-oxo-4H-quinazolin-3-yl)-acetamide]", "values": [{"measurement": "EC50", "value": "> 25", "unit": "µM"}]}
{"smiles": "CN(C1CCCCC1)S(=O)(=O)c1ccc(NC(=O)Cn2cnc3ccccc3c2=O)cc1", "note": "[Compound 49, N-[4-(Cyclohexyl-methyl-sulfamoyl)-phenyl]-2-(4-oxo-4H-quinazolin-3-yl)-acetamide]", "values": [{"measurement": "EC50", "value": "> 25", "unit": "µM"}]}
{"smiles": "CN(C)S(=O)(=O)c1ccc(NC(=O)Cn2cnc3ccccc3c2=O)cc1", "note": "[Compound 50, N-(4-Dimethylsulfamoyl-phenyl)-2-(4-oxo-4H-quinazolin-3-yl)-acetamide]", "values": [{"measurement": "EC50", "value": "> 25", "unit": "µM"}]}
{"smiles": "O=C(Cn1cnc2ccccc2c1=O)Nc1ccc(S(=O)(=O)N2CCCCCC2)cc1", "note": "[Compound 51, N-[4-(Azepane-1-sulfonyl)-phenyl]-2-(4-oxo-4H-quinazolin-3-yl)-acetamide]", "values": [{"measurement": "EC50", "value": "> 25", "unit": "µM"}]}
{"smiles": "O=C(Cn1cnc2ccccc2c1=O)Nc1ccc(S(=O)(=O)N2CCCCC2)cc1", "note": "[Compound 52, 2-(4-Oxo-4H-quinazolin-3-yl)-N-[4-(piperidine-1-sulfonyl)-phenyl]-acetamide]", "values": [{"measurement": "EC50", "value": "> 25", "unit": "µM"}]}
{"smiles": "CC1CCCN(S(=O)(=O)c2ccc(NC(=O)Cn3cnc4ccccc4c3=O)cc2)C1", "note": "(centres unmarked) [Compound 53, N-[4-(3-Methyl-piperidine-1-sulfonyl)-phenyl]-2-(4-oxo-4H-quinazolin-3-yl)-acetamide]", "values": [{"measurement": "EC50", "value": "> 25", "unit": "µM"}]}
{"smiles": "COC(=O)CNS(=O)(=O)c1ccc(NC(=O)Cn2cnc3ccccc3c2=O)cc1", "note": "[Compound 54, {4-[2-(4-Oxo-4H-quinazolin-3-yl)-acetylamino]-benzene-sulfonylamino}-acetic acid methyl ester]", "values": [{"measurement": "EC50", "value": "> 25", "unit": "µM"}]}
{"smiles": "CC(C)(C)NS(=O)(=O)c1cccc(NC(=O)Cn2cnc3ccccc3c2=O)c1", "note": "[Compound 55, N-(3-tert-Butylsulfamoyl-phenyl)-2-(4-oxo-4H-quinazolin-3-yl)-acetamide]", "values": [{"measurement": "EC50", "value": "> 25", "unit": "µM"}]}
{"smiles": "CCN(CC)S(=O)(=O)c1ccc(NC(=O)Cn2cnc3sc(-c4ccccc4)cc3c2=O)cc1", "note": "[Compound 56, N-(4-Diethylsulfamoyl-phenyl)-2-(4-oxo-6-phenyl-4H-thieno[2,3-d]pyrimidin-3-yl)-acetamide]", "values": [{"measurement": "EC50", "value": "> 25", "unit": "µM"}]}
{"smiles": "CCN(CC)S(=O)(=O)c1ccc(NC(=O)Cn2cnc3cc(F)ccc3c2=O)cc1", "note": "[Compound 57, N-(4-Diethylsulfamoyl-phenyl)-2-(7-fluoro-4-oxo-4H-quinazolin-3-yl)-acetamide]", "values": [{"measurement": "EC50", "value": "> 25", "unit": "µM"}]}
{"smiles": "CCN(CC)S(=O)(=O)c1ccc(NC(=O)Cn2cnc3cc(OC)c(OC)cc3c2=O)cc1", "note": "[Compound 58, N-(4-Diethylsulfamoyl-phenyl)-2-(6,7-dimethoxy-4-oxo-4H-quinazolin-3-yl)-acetamicle]", "values": [{"measurement": "EC50", "value": "> 25", "unit": "µM"}]}
{"smiles": "CCN(CC)S(=O)(=O)c1ccc(NC(=O)Cn2cnc3scc(-c4ccccc4)c3c2=O)cc1", "note": "[Compound 59, N-(4-Diethylsulfamoyl-phenyl)-2-(4-oxo-5-phenyl-4H-thieno[2,3-d]pyrimidin-3-yl)-acetamide]", "values": [{"measurement": "EC50", "value": "> 25", "unit": "µM"}]}
{"smiles": "CCN(CC)S(=O)(=O)c1ccc(NC(=O)Cn2cnc3cc(NC)c([N+](=O)[O-])cc3c2=O)cc1", "note": "[Compound 60, N-(4-Diethylsulfamoyl-phenyl)-2-(7-methylamino-6-nitro-4-oxo-4H-quinazolin-3-yl)-acetamide]", "values": [{"measurement": "EC50", "value": "> 25", "unit": "µM"}]}
{"smiles": "CCN(CC)S(=O)(=O)c1ccc(NC(=O)Cn2cnc3cc(-c4ccc(OC)cc4)sc3c2=O)cc1", "note": "[Compound 61, N-(4-Diethylsulfamoyl-phenyl)-2-[6-(4-methoxy-phenyl)-4-oxo-4H-thieno[3,2-d]pyrimidin-3-yl]-acetamide]", "values": [{"measurement": "EC50", "value": "> 25", "unit": "µM"}]}
{"smiles": "Cc1cccc2c(=O)n(CC(=O)Nc3ccc(S(=O)(=O)N(C)C)cc3)cnc12", "note": "[Compound 62, N-(4-Dimethylsulfamoyl-phenyl)-2-(8-methyl-4-oxo-4H-quinazolin-3-yl)-acetamide]", "values": [{"measurement": "EC50", "value": "> 25", "unit": "µM"}]}
{"smiles": "CCN(CC)S(=O)(=O)c1ccc(NC(=O)CNC(=O)c2cc(C)cc(C)c2)cc1", "note": "[Compound 63, N-[(4-Diethylsulfamoyl-phenylcarbamoyl)-methyl]-3,5-dimethyl-benzamide]", "values": [{"measurement": "EC50", "value": "> 25", "unit": "µM"}]}
{"smiles": "CCN(CC)S(=O)(=O)c1ccc(NC(=O)CSc2nc3ccccc3c(=O)n2CC)cc1", "note": "[Compound 64, N-(4-Diethylsulfamoyl-phenyl)-2-(3-ethyl-4-oxo-3,4-dihydro-quinazolin-2-ylsulfanyl)-acetamide]", "values": [{"measurement": "EC50", "value": "> 25", "unit": "µM"}]}
{"smiles": "CCN(CC)S(=O)(=O)c1cccc(NC(=O)Cn2cnc3ccccc3c2=O)c1", "note": "[Compound 65, N-(3-Diethylsulfamoyl-phenyl)-2-(4-oxo-4H-quinazolin-3-yl)-acetamide]", "values": [{"measurement": "EC50", "value": "> 25", "unit": "µM"}]}
{"smiles": "CCN(CC)S(=O)(=O)c1ccc(C(=O)OCc2nc3ccccc3c(=O)n2CC(N)=O)cc1", "note": "[Compound 66, 4-Diethylsulfamoyl-benzoic acid 3-carbamoylmethyl-4-oxo-3,4-dihydro-quinazolin-2-ylmethyl ester]", "values": [{"measurement": "EC50", "value": "> 25", "unit": "µM"}]}
{"smiles": "CCN(CC)S(=O)(=O)c1ccc(C(=O)Nn2cnc3ccccc3c2=O)cc1", "note": "[Compound 67, 4-Diethylsulfamoyl-N-(4-oxo-4H-quinazolin-3-yl)-benzamide]", "values": [{"measurement": "EC50", "value": "> 25", "unit": "µM"}]}
{"smiles": "CCN(CC)S(=O)(=O)c1ccc(C(C)NC(=O)CCn2nnc3ccccc3c2=O)cc1", "note": "(centres unmarked) [Compound 68, N-[1-(4-Diethylsulfamoyl-phenyl)-ethyl]-3-(4-oxo-4H-benzo[d][1,2,3]triazin-3-yl)-propionamide]", "values": [{"measurement": "EC50", "value": "> 25", "unit": "µM"}]}
{"smiles": "CCN(CC)S(=O)(=O)c1ccc(CNC(=O)Cn2cnc3ccccc3c2=O)cc1", "note": "[Compound 69, N-(4-Diethylsulfamoyl-benzyl)-2-(4-oxo-4H-quinazolin-3-yl)-acetamide]", "values": [{"measurement": "EC50", "value": "> 25", "unit": "µM"}]}
{"smiles": "CCN(CC)S(=O)(=O)c1ccc(NC(=O)CNC(=O)c2cccc(S(=O)(=O)N(C)C)c2)cc1", "note": "[Compound 70, N-[(4-Diethylsulfamoyl-phenylcarbamoyl)-methyl]-3-dimethylsulfamoyl-benzamide]", "values": [{"measurement": "EC50", "value": "> 25", "unit": "µM"}]}
{"smiles": "CCN(CC)S(=O)(=O)c1ccc(NC(=O)CSc2nc3ccccc3c(=O)n2C)cc1", "note": "[Compound 71, N-(4-Diethylsulfamoyl-phenyl)-2-(3-methyl-4-oxo-3,4-dihydro-quinazolin-2-ylsulfanyl)-acetamide]", "values": [{"measurement": "EC50", "value": "> 25", "unit": "µM"}]}
